Here are results for seven compounds from patent US5437980A, “Phenanthridium dye staining of nucleic acids in living cells” (Molecular Probes, Inc., priority 1993, dated 1995).

Entries after “also recorded” stand apart in the source; their conditions may differ.

In one assay the test system is living cells. As to the kind of experiment: Entry into / staining of living cells, general. The format is cell-based. As to conditions: general summary; for entry into / staining of live cells: several types of cells.
The test system of assay [1] is DNA. As to the kind of experiment: Relative DNA binding affinity, YOYO-1 over 5-DAPP/LIVE.
Assay [2] relates to free-living ciliate and flagellate protozoans. Briefly: Staining of protozoa (Example 7). The format is cell-based. The following applies: 1 μL of 10 mM dye in 1 mL culture, 10 min, ambient temperature. The procedure:
1 μL of 10 mM the 5-DAPP/LIVE dye stock is added to 1 mL of protozoan culture. The medium is incubated for 10 min at ambient temperature. 15 μL of this preparation is mounted with dye between a coverglass and the slide. Using this procedure, the nuclei of most cells of the free-living ciliate and flagellate protozoans are stained under these conditions.

A further assay relates to mushroom spores. Briefly: Staining of mushroom spores by fluorescence microscopy (Example 4). It is filed as cell-based, agaric. The following applies: 10-20 μM dye, 30 min, room temperature. The protocol: Spores are rinsed from the gills on the underside of the cap of an agaric using a stream of distilled water. The spores are concentrated by centrifugation for 30 sec at 10,000 rpm in a microcentrifuge then a minimal volume of a 10-20 μM solution of the 5-DAPP/LIVE dye in distilled water is added. The suspension is incubated with the dye for 30 min at room temperature then a 15 μL aliquot of the suspension is mounted on between a coverglass and the slide for viewing in the presence of the dye. The cellular fluorescence is observed on a Zeiss Axioplan fluorescence microscope using fluorescein (long:pass emission) or rhodamine filter sets.

A further assay deals with Bacillus cereus. As to the kind of experiment: Relative rate and extent of dye uptake into living Bacillus cereus (Example 2, FIG. 1). As to conditions: 2 μM dye, 23° C., 488 nm excitation, 600 nm emission. The format is cell-based. The protocol:
FIG. 1. Relative Uptake of Dyes into Living Cells. Uptake of ethidium, butidium, hexidium and octidium by Bacillus cereus as described in Example 2.
Bacillus cereus is grown in nutrient broth to log phase, washed by centrifugation, and resuspended in water to a density of 5×10^6 cfu/mL (as determined in Example 1). One centimeter pathlength acrylic cuvettes containing 3 mL of cell suspension are placed in a fluorescence spectrophotometer equipped with a temperature regulated cuvette holder and magnetic stirrer. The suspensions are brought to 23° C. prior to dye addition. To a cuvette of 3 mL bacteria suspension is added 3 μL of 2 mM dye stock solutions in DMSO to give a final dye concentration of 2 μM to produce the maximum attainable fluorescence/cell at the 600 nm emission wavelength (determined as in Example 1). The peak fluorescence excitation and emission wavelengths are determined by scanning the spectrum of the dye in suspensions of Bacillus cereus incubated for 30 min with the dye. Fluorescence intensity of the suspensions is measured using 488 nm excitation and 600 nm emission wavelengths. Sampling of fluorescence is carried out at 5 or 10 Hz until the fluorescence signal appears to stabilize.

Assay [3] concerns epidermal tissue of the bulb, Alium spp. As to the kind of experiment: Staining of plant cell tissue (Example 6). As to conditions: 10 μM dye, 30 min, room temperature. The format is cell-based. The procedure:
A small section of tissue from the bulb is removed with a razor blade. 0.5 mL of a 10 μM solution of the 5-DAPP/LIVE dye in distilled water is dispensed into a small glass dish. The epidermal tissue is cut into sections and placed in the dye solution. The tissue is stained for 30 min at room temperature in the dark then the tissue preparation is mounted in the presence of the dye between a coverglass and the slide.

The subject of assay [4] is DNA. As to the kind of experiment: DNA affinity (Kp) from fluorescence enhancement versus DNA concentration, microtiter plate reader. The following applies: comparison in words, Table 1. The format is binding. The procedure:
^1 Fluorescence spectra obtained using a standard ratio of 200 μM
bp of DNA (bases of RNA) to 1 μM dye (standard solution) in a working
buffer (10 mM phosphate, 10% (v/v) ethanol, 1 mM EDTA and 100 mM NaCl), p
7.4. Fluorescence was measured in a Corning 96 U well plate and Cytofluor
sensitivity 4) as a function of DNA concentration from 0-100 μM at a
constant dye concentration of 0.5 μM.
^2 Fluorescence spectra obtained using the same method as above excep
the fluorescence was measured in a Cytofluor ™ 2300 (excitation filter
E (485/620); excitation D (620/640), and a sensitivity 4) as a function o
DNA concentration from 0-30 μM at a constant dye concentration of 0.1
^3 DNA affinity (Kp) determined by linear fitting of plots of
reciprocal fluorescence enhancement versus reciprocal DNA concentration,
as measured on a microtiter plate fluorescence reader (CytoFluor ™,

For assay [5], the system named is 3T3 mouse fibroblast cells. Briefly: Staining of nuclei in adherent cultured mammalian cells (Example 9). It is filed as cell-based. As to conditions: 2 μM dye; for staining distribution, chloroquine-treated cells: group 1, 300 μM chloroquine; for staining distribution, control cells: group 2, no chloroquine; for color of nucleus and cytoplasm: one half hour, long-pass fluorescein filter (red with rhodamine excitation). The procedure: 3T3 mouse fibroblast cells are grown on coverslips in calf serum-supplemented DMEM medium. The coverslips of cells are washed in HBSS+. 5-DAPP/LIVE dye solutions are prepared to a final concentration of 2 μM in DMEM without serum. One group of 3T3 cells is treated with 300 μM chloroquine (group 1). These cells and control cells (group 2) not treated with chloroquine are incubated at 37° C. for 30 min. The two groups of cells are transferred to DMEM plus 5-DAPP/LIVE. The cells are incubated in the dye-containing medium for 30 min at room temperature and are subsequently washed in HBSS+and viewed by epifluorescence microscopy using a long-pass fluorescein or a rhodamine filter set.

Assay [6] has as its system peripheral blood lymphocytes. Briefly: Staining of peripheral blood lymphocytes, fluorometer (Example 11). As to conditions: for distribution of dye into nucleus of lymphocytes: on the scale of seconds. The format is cell-based, goat. The protocol:
Peripheral blood lymphocytes (PBL) are isolated from fresh heparinized goat blood and resuspended in buffer consisting of 135 mM NaCl, 5 mM KCl, 20 mM HEPES, 1 mM CaCl2, 1 mM MgCl2, pH 7.4 (HBSS+). The cells are resuspended to 10^6 mL (as determined by direct microscopic count using a standard hemocytometer) in a final volume of 3 mL in the above buffer in a quartz cuvette. 5-DAPP/LIVE dye stocks are prepared to final concentrations of 2 mM in DMSO. 3 μL of the octidium dye stock solution is injected into the cuvette to a final concentration of 2 μM. In a fluorometer, the sample is excited at 520 nm and fluorescence emission is monitored at 600 nm over the time required for the fluorescence signal to become stable. Hexidium, butidium and ethidium bromide are injected into separate samples of PBL to determine the relative rates of uptake for these stains. The volume of dye solution added to the cuvette is corrected by a factor relating the absorbance of the dye to the absorbance of a 2 mM octidium solution.

The subject of a further assay is Saccharomyces. As to the kind of experiment: Staining of yeast (Example 5). It is filed as cell-based. As to conditions: 10 μM dye, 30 min, 37° C. The procedure:
Yeast cells are washed by centrifugation and then resuspended in a solution of 2% glucose and 10 mM Na-HEPES, pH 7.4 to a cell density of between 5×10^5 and 2×10^6 cells/mL optical density at 410 nm (previously calibrated with YPD agar plate colony counts). Sufficient 10 mM stock solution of the 5-DAPP/LIVE dye in DMSO is added to effect a final concentration of 10 μM of the dye in the medium. The suspension is incubated for 30 min at 37° C. then 15 μL are placed between a coverglass and the microscope slide. The cellular fluorescence is observed using fluorescein (long-pass emission) or rhodamine filter sets.

A further assay relates to nucleic acids. The following applies: reduced ethidium, Bucana et al. (1986); cited from earlier work.
Another assay relates to trypanosome. The following applies: Watkins, J. CHEM SOC. 3059 (1952); Watkins & Woolfe; cited from earlier work.
A further assay deals with gram-positive bacteria. As to the kind of experiment: Staining of live gram-positive bacteria. It is filed as cell-based. The following applies: general summary.
A further assay has as its system tissue culture cells. As to the kind of experiment: Entry into / staining pattern of tissue culture cells. The format is cell-based. From the text: In some tissue culture cells, the pattern of staining is different from that observed in plant cells or bacteria. In the former case, cells are usually loaded with a brief pulse of dye, followed by a chase of buffered saline solution. These cells show a pattern of staining first in numerous intracellular compartments; e.g. lysosomes. In addition to staining these organelles first, the dyes also undergo a spectral shift to shorter wavelengths when associated with this "early-labeled compartment." If the same cells are exposed to pulses of higher concentrations of the 5-DAPP/LIVE dyes, the staining appears in the mitochondria (tubular structures that are labeled with rhodamine 123) and then, finally, in the nucleus, where it stains the nucleoli very brightly. Nucleoli are the most prominently stained area of higher eukaryotic cells, while the nuclei and cytosol usually stain in a hazy or punctate pattern in these cells. […] In plant tissues distinct nuclei tend to label uniformly, but there is frequently significant binding of the dye to cell walls. The plant cells are usually dark except for cell walls and nuclei. The characteristic binding morphology obtained using the 5-DAPP/LIVE dyes thus makes them useful in certain circumstances for identifying the type of cell in a mixed population of cells.

Take `C[n+]1c(C=C2C=CN(CCC[N+](C)(C)CCC[N+](C)(C)CCCN3C=CC(=Cc4oc5ccccc5[n+]4C)c4ccccc43)c3ccccc32)oc2ccccc21` [YOYO-1, reference compound]: the membrane permeability result with living cells is reported as “virtual impermeability”. The “DNA binding affinity of YOYO-1 over 5-DAPP/LIVE” value in the assay with DNA [1] is “hundred”.
In the case of `CCCC[n+]1c(-c2ccccc2)c2cc(N)ccc2c2ccc(N)cc21` [butidium], in the assay on living cells, the membrane permeability result is on record as “limited permeability in most cells”; the “entry into / staining of live cells” value is “enters live cells slowly and is usually not very bright”. Further, the “staining of nuclei of protozoans” value in assay [2] is “octidium which is better than butidium and ethidium”. Also, in the assay on mushroom spores, the “fraction of spores brightly stained” value is “about 10%” and the “staining of spores (in words)” value was “stains all spores”. Also, the “rate of dye loading” value in the assay with Bacillus cereus is given as “increases with carbon chain length”. Further, the “cell wall / surface staining” value in assay [3] was “more hazy surface staining”. Further, the “binding affinity versus longer chain versions” value with DNA [4] was “higher binding affinity than the tested longer chain versions”. Further, in [5], the “staining distribution, chloroquine-treated cells” value was “stained throughout, but with a greater relative intensity of staining in the nucleus”; the “staining distribution, control cells” value was “relatively equal staining in the nucleus and cytoplasm”; the “color of nucleus and cytoplasm” value is listed as “orange”. In addition, the “distribution of dye into nucleus of lymphocytes” value in assay [6] is given as “virtually instantaneous”. Also, the “staining distribution and intensity” value with Saccharomyces is on record as “more punctate cytoplasmic inclusions stained”.
Consider `CCN1c2cc(N)ccc2-c2ccc(N)cc2C1c1ccccc1` (centres unmarked) [dihydrophenanthridine derivative], for which the nucleic acid binding entry in the assay on nucleic acids is “does not bind to nucleic acids”.
As to `CC[n+]1c(-c2ccccc2)c2cc(N)ccc2c2ccc(N)cc21` [ethidium bromide, reference compound], in assay [6] (2 μM dye, 520 nm excitation, 600 nm emission), the “increase in fluorescence over time” value is on record as “essentially no increase in fluorescence signal over time”.
For the compound `C[n+]1c(-c2ccccc2)c2cc(N)ccc2c2ccc(N)cc21` [methidium], in the assay on trypanosome, the “trypanocidal effectiveness / therapeutic potential” value was “less effective than ethidium”.
For `CCCCCCCC[n+]1c(-c2ccccc2)c2cc(N)ccc2c2ccc(N)cc21` [octidium], in the assay with living cells, the membrane permeability result is listed as “marked enhancement of membrane permeability in all systems” and the “entry into / staining of live cells” value is “enters cell membranes quickly; also recorded: becomes bright with continued incubation”. Moreover, the “staining of nuclei of protozoans” value in assay [2] is “better than butidium and ethidium”. Further, the “fraction of spores brightly stained” value in the assay with mushroom spores was “about 10%”. In addition, the “rate of dye loading” value in the assay on Bacillus cereus is “increases with carbon chain length”. Further, in assay [3], the “cell wall / surface staining” value is “more hazy surface staining occurs with ethidium and butidium than with hexidium or octidium”; the “nuclear staining / staining” value is “stains identically to hexidium”. In addition, in assay [5], the “staining distribution, chloroquine-treated cells” value is listed as “stained throughout, but with a greater relative intensity of staining in the nucleus”; the “staining distribution, control cells” value was “relatively equal staining in the nucleus and cytoplasm”; the “color of nucleus and cytoplasm” value was “orange”. For the same compound, in assay [6], the “distribution of dye into nucleus of lymphocytes” value is recorded as “virtually instantaneous”. In the assay with Saccharomyces, the “fraction of yeast with stained nuclei” value was “less than 100%”; the “staining distribution and intensity” value was “somewhat less bright than hexidium staining; also recorded: markedly less cytoplasmic staining than any of the other forms”.
With `Nc1ccc2c(c1)c(-c1ccccc1)[n+](CCc1ccccc1)c1cc(N)ccc21` [phenethidium], in the assay with living cells, the membrane permeability entry is “marked enhancement of membrane permeability in all systems” and the “entry into / staining of live cells” value is on record as “facilitates entry of the 5-DAPP dye into living cells, but at a rate that is typically slower than derivatives in which the substituent is a C4 to C8 alkyl group”. The “entry into gram positive bacteria” value in the assay on gram-positive bacteria is recorded as “enters gram positive bacteria”. The “time to enter tissue culture cells” value with tissue culture cells is at least 1 h.
